Measurements reported in ChEMBL document CHEMBL5236632, “Membrane-Active Nonivamide Derivatives as Effective Broad-Spectrum Antimicrobials: Rational Design, Synthesis, and Biological Evaluation” (J Med Chem, 2022).
Converted amounts (≈) assume the structure as drawn. The source made the active and inactive calls. The calls are words filed in the database; no cut-off is given here.

Key:
Staphylococcus aureus [1] = experiment: Eradication of biofilm in Staphylococcus aureus ATCC 29213 assessed as biofilm viability at 0.39 ug/ml measured after 24 hrs by crystal violet staining assay; type: functional; settings: dose 0.39 µg/ml
[2] = Selectivity ratio, HC50 for hemolytic activity in rabbit RBC to MIC for antibacterial activity against Acinetobacter baumannii ATCC 17978; type: toxicity; settings: rabbit red blood cells
Klebsiella pneumoniae [3] = experiment: Antibacterial activity against Klebsiella pneumoniae ATCC 10031 assessed as inhibition of visible growth measured after 18 to 24 hrs in presence of 175.5 ug/ml K+ by broth dilution method; type: functional; settings: time 18-24 hrs
Escherichia coli [4] = experiment: Antibacterial activity against Escherichia coli […] assessed as inhibition of visible growth measured after 18 to 24 hrs in presence of 175.5 ug/ml K+ by broth dilution method; type: functional; settings: time 18-24 hrs
Staphylococcus aureus [5] = experiment: Inhibition of biofilm formation Staphylococcus aureus ATCC 29213 assessed as decrease in biofilm formation at 0.39 ug/ml measured after 24 hrs by crystal violet staining assay; type: functional
Klebsiella pneumoniae [6] = experiment: Antibacterial activity against Klebsiella pneumoniae ATCC 10031 assessed as inhibition of visible growth measured after 18 to 24 hrs in presence of 100 ug/ml Ca2+ by broth dilution method; type: functional; settings: time 18-24 hrs
Staphylococcus aureus [7] = experiment: Displacement of BODIPY-TR-cadaverin from Staphylococcus aureus lipoteichoic acid at MIC concentration incubated for 30 mins by fluorescence based analysis
Escherichia coli [8] = experiment: Eradication of biofilm in Escherichia coli ATCC 25922 assessed as biofilm viability at 0.78 ug/ml measured after 24 hrs by crystal violet staining assay; type: functional; settings: dose 0.78 µg/ml
Cell membrane [9] = experiment: Induction of membrane integrity disruption in Staphylococcus aureus ATCC 29213 assessed as increase fluoresence intensity at 4 to 8 times of MIC measured for 60 mins by SYTOX Green uptake assay; type: subcellular
[10] = Toxicity in C57BL/6 mouse cornea assessed as corneal damage at 5 mg/ml treated topically; type: tissue-based; settings: in vivo, topical_or_ocular, route top
Cell membrane [11] = experiment: Induction of membrane integrity disruption in Escherichia coli ATCC 25922 assessed as increase fluoresence intensity at 4 to 8 times of MIC measured for 60 mins by SYTOX Green uptake assay; type: subcellular
Escherichia coli [12] = experiment: Drug resistance development in Escherichia coli ATCC 25922 assessed as fold change in MIC measured after 20 passages; type: functional
Cell membrane [13] = experiment: Induction of membrane integrity disruption in methicillin-resistant Staphylococcus aureus NCTC 10442 assessed as increase fluoresence intensity at 4 to 8 times of MIC measured for 60 mins by SYTOX Green uptake assay; type: subcellular
Staphylococcus aureus [14] = experiment: Antibacterial activity against methicillin-resistant Staphylococcus aureus NCTC 10442 assessed as inhibition of visible growth measured after 18 to 24 hrs by broth dilution method; type: functional; settings: time 18-24 hrs
[15] = Selectivity ratio, HC50 for hemolytic activity in rabbit RBC to MIC for antibacterial activity against Pseudomonas aeruginosa ATCC 9027; type: toxicity; settings: rabbit red blood cells
Acinetobacter baumannii [16] = experiment: Antibacterial activity against Acinetobacter baumannii ATCC 17978 assessed as inhibition of visible growth measured after 18 to 24 hrs by broth dilution method; type: functional; settings: time 18-24 hrs
Staphylococcus aureus [17] = experiment: Antibacterial activity against Staphylococcus aureus ATCC 29213 assessed as inhibition of visible growth measured after 18 to 24 hrs in presence of 175.5 ug/ml K+ by broth dilution method; type: functional; settings: time 18-24 hrs
Staphylococcus aureus [18] = experiment: Inhibition of biofilm formation Staphylococcus aureus ATCC 29213 assessed as decrease in biofilm formation at 0.20 ug/ml measured after 24 hrs by crystal violet staining assay; type: functional
[19] = Selectivity ratio, HC50 for hemolytic activity in rabbit RBC to MIC for antibacterial activity against Klebsiella pneumoniae ATCC 10031; type: toxicity; settings: rabbit red blood cells
Escherichia coli [20] = experiment: Eradication of biofilm in Escherichia coli ATCC 25922 assessed as biofilm viability at […] ug/ml measured after 24 hrs by crystal violet staining assay; type: functional; settings: dose […] microg/ml, 1.56 ug/mL
[21] = Cytotoxicity against mouse NCTC clone 929 cells assessed as cell viability after 24 hrs incubation byCCK-8 assay; type: toxicity, cell-based
Klebsiella pneumoniae [22] = experiment: Antibacterial activity against Klebsiella pneumoniae ATCC 14581 assessed as inhibition of visible growth measured after 18 to 24 hrs by broth dilution method; type: functional; settings: time 18-24 hrs
Staphylococcus aureus [23] = experiment: Antibacterial activity against Staphylococcus aureus ATCC 29213 assessed as reduction in bacterial load at 8 time of MIC measured after 8 hrs by time kill assay; type: functional
Escherichia coli [24] = experiment: Antibacterial activity against Escherichia coli ATCC 25922 assessed as bacterial regrowth at 8 time of MIC measured after 24 hrs by time kill assay; type: functional, organism-based
Staphylococcus aureus [25] = experiment: Eradication of biofilm in Staphylococcus aureus ATCC 29213 assessed as biofilm viability at 0.78 ug/ml measured after 24 hrs by crystal violet staining assay; type: functional; settings: dose 0.78 µg/ml
Staphylococcus aureus [26] = experiment: Displacement of BODIPY-TR-cadaverin from Staphylococcus aureus lipoteichoic acid at 8 times of MIC incubated for 30 mins by fluorescence based analysis
Acinetobacter baumannii [27] = experiment: Antibacterial activity against Acinetobacter baumannii R2889 assessed as inhibition of visible growth measured after 18 to 24 hrs by broth dilution method; type: functional; settings: time 18-24 hrs
Klebsiella pneumoniae [28] = experiment: Antibacterial activity against Klebsiella pneumoniae ATCC 10031 assessed as inhibition of visible growth measured after 18 to 24 hrs in presence of 3220 ug/ml Na+ by broth dilution method; type: functional; settings: time 18-24 hrs
Lipopolysaccharide (LPS) [29] = experiment: Displacement of BODIPY-TR-cadaverin from Escherichia coli lipopolysaccharide at 8 times of MIC incubated for 30 mins by fluorescence based analysis
[30] = Selectivity ratio, HC50 for hemolytic activity in rabbit RBC to MIC for antibacterial activity against methicillin-resistant Staphylococcus aureus NCTC 10442; type: toxicity; settings: rabbit red blood cells
Staphylococcus aureus [31] = experiment: Antibacterial activity against Staphylococcus aureus ATCC 29213 assessed as inhibition of visible growth measured after 18 to 24 hrs in presence of 24.3 ug/ml Mg2+ by broth dilution method; type: functional; settings: time 18-24 hrs
Staphylococcus aureus [32] = experiment: Antibacterial activity against Staphylococcus aureus ATCC 29213 assessed as inhibition of visible growth measured after 18 to 24 hrs by broth dilution method; type: functional; settings: time 18-24 hrs
Staphylococcus aureus [33] = experiment: Antibacterial activity against Staphylococcus aureus ATCC 29213 assessed as fold increase in MIC measured after 18 to 24 hrs in presence of 512 ug/ml LTA/LPS by broth dilution method; type: functional; settings: time 18-24 hrs
Staphylococcus aureus [34] = experiment: Eradication of biofilm in Staphylococcus aureus ATCC 29213 assessed as biofilm viability at […] ug/ml measured after 24 hrs by crystal violet staining assay; type: functional; settings: dose […] microg/ml, 1.56 ug/mL
[35] = Selectivity ratio, HC50 for hemolytic activity in rabbit RBC to MIC for antibacterial activity against Klebsiella pneumoniae ATCC 14581; type: toxicity; settings: rabbit red blood cells
Lipopolysaccharide (LPS) [36] = experiment: Displacement of BODIPY-TR-cadaverin from Escherichia coli lipopolysaccharide at MIC concentration incubated for 30 mins by fluorescence based analysis
Escherichia coli [37] = experiment: Antibacterial activity against Escherichia coli ATCC 25922 assessed as fold increase in MIC measured after 18 to 24 hrs in presence of 512 ug/ml LTA/LPS by broth dilution method; type: functional; settings: time 18-24 hrs

## CCCCCCCCC(=O)NCc1ccc(OCCCCCCNC(=N)N)c(OCCCCCCNC(=N)N)c1
Staphylococcus aureus [1]
  Activity: 73.22%
[2]
  selectivity ratio: 21.6
Klebsiella pneumoniae [3]
  MIC: 0.78 µg/mL
Escherichia coli [4]
  MIC: 1.56 µg/mL
Staphylococcus aureus [5]
  inhibition at 0.39 µg/mL: 97.8%
Klebsiella pneumoniae [6]
  MIC: 3.12 µg/mL
Staphylococcus aureus [7]
  Activity: 10.2%
Escherichia coli [8]
  Activity: 90.23%
Cell membrane [9]
  Activity: Active
[10]
  Activity: Non-Toxic
Cell membrane [11]
  Activity: Active
Escherichia coli [12]
  fold change (FC): <4
Cell membrane [13]
  Activity: Active
Staphylococcus aureus [14]
  MIC: 0.39 µg/mL (≈ 0.694 µM)
[15]
  selectivity ratio: 21.6
Acinetobacter baumannii [16]
  MIC: 3.12 µg/mL (≈ 5.56 µM)
Staphylococcus aureus [17]
  MIC: 0.39 µg/mL
Staphylococcus aureus [18]
  inhibition at 0.2 µg/mL: 62.3%
[19]
  selectivity ratio: 21.6
Escherichia coli [20]
  Activity: 93.71%
[21]
  CC50 at 24 h: 35.2 µg/mL (≈ 62.7 µM)
Klebsiella pneumoniae [22]
  MIC: 1.56 µg/mL (≈ 2.78 µM)
Staphylococcus aureus [23]
  Activity: 3.59 log10CFU/ml
Escherichia coli [24]
  Activity: Active
Staphylococcus aureus [25]
  Activity: 64.77%
Staphylococcus aureus [26]
  Activity: 38.4%
Acinetobacter baumannii [27]
  MIC: 6.25 µg/mL (≈ 11.1 µM)
Klebsiella pneumoniae [28]
  MIC: 1.56 µg/mL
Lipopolysaccharide (LPS) [29]
  Activity: 103%
[30]
  selectivity ratio: 173
Staphylococcus aureus [31]
  MIC: 0.39 µg/mL
Staphylococcus aureus [32]
  MIC: 0.78 µg/mL (≈ 1.39 µM)
Staphylococcus aureus [33]
  fold change (FC): 8
Staphylococcus aureus [34]
  Activity: 36.07%
[35]
  selectivity ratio: 21.6
Lipopolysaccharide (LPS) [36]
  Activity: 56.4%
Escherichia coli [37]
  fold change (FC): 16
